This note sets out measurements from PMC11983575, “Study on the synthesis and biological activity of kojic acid triazol thiosemicarbazide Schiff base derivatives” (Journal of Enzyme Inhibition and Medicinal Chemistry, 2025).

The subject of one experiment is fresh-cut apples. The experiment is described as follows: Effects on the browning process of fresh-cut apples. More on the design: species or system Fuji apples. Particulars: 6w 25, 50, 100 μM; storage at 5 °C for five days; kojic acid and vitamin C 50 μM as positive controls. On the procedure:
Fuji apples were planted in Yantai, China, and were bought from Walmart supermarket in Shaoyang, China. The apples were come from the same batch having similar shapes, maturity, and without injuries, rot, diseases, or pests. Apples were cut into thin pieces with same size by using a sharp knife. Then, the fresh-cut slices were divided randomly into different groups: blank control group was immersed in ethanol for 10 min at room temperature, treatment groups were dipped in the solution of compound 6w under the same conditions, positive groups were dipped in 50 μM kojic acid and 50 μM vitamin C under the same conditions. The test samples were air-dried naturally and immediately were separately packaged with polyethylene clam-packs, and stored at 2–8 °C, and used for the following experimental measurements.
According to the reported protocol, the colour of apple samples was tested by a CR-400 Minolta […] instrument (Konica Minolta, Osaka, Japan). Three data of L*, a*, and b* were recorded for each sample. The L* values indicate lightness, the a* values show reddish-greenish, the b* values represent yellowish-bluish. The colour measurement was carried out in triplicate by random sampling.
Therefore, we further evaluated its anti-browning effect on apple, in which kojic acid and vitamin C were used as positive control. […]

A short description of experiment [1]: ABTS radical cation scavenging activity assay. Conditions: 734 nm; read-out: ABTS+/IC50 (μM) ± SD. The protocol:
ABTS free radical scavenging activity was performed according to the procedure described by Zhang et al.[40] Test solution of ABTS decolourisation assay was prepared by mixing 2.45 mM potassium persulfate and 7 mM ABTS at 8:12 volume/volume ratio. The working solution was kept in the dark at room temperature for 12–18 h. Before ABTS radical scavenging test, the ABTS test solution was diluted with DMSO to absorbance of 0.7 (±0.02) at 734 nm. One millilitre of diluted ABTS test solution was added to 10 μl of DMSO or test sample. After initial mixing, the working solution was kept in the dark at room temperature for 2–6 min, and the absorbance was measured at 734 nm. This test was carried out in triplicate. DMSO was used as a control. Ascorbic acid was used as antioxidant standard for comparison of the activity. The absorbance of test samples was calculated by the following formula. ABTS scavenging ability %=absorbance of standard−absorbance of sample/absorbance of standard×100.

For the next experiment, the target named is mushroom tyrosinase (Agaricus bisporus, UniProt C7FF04). The experiment is described as follows: Tyrosinase kinetic analysis (Lineweaver-Burk plots). The experiment is classed as biochemical. On the procedure: To study the inhibition type of kojic acid-triazole derivatives, the investigation of inhibitory type of selected compound 6w on mushroom tyrosinase was carried out according to reported protocol. Compound 6w was used at the concentrations of […], respectively. Substrate L-DOPA concentration was between 500 µM and 1000 µM in the process of all kinetic study. Pre-incubation time and measurement time were the same as described in mushroom tyrosinase inhibition assay procedure. Lineweaver–Burk’s plots of inverse of velocities (1/V) versus inverse of substrate concentration 1/[S] µM^−1 were used to determine the type of enzyme inhibition.
Sequence of mushroom tyrosinase (C7FF04 1-392): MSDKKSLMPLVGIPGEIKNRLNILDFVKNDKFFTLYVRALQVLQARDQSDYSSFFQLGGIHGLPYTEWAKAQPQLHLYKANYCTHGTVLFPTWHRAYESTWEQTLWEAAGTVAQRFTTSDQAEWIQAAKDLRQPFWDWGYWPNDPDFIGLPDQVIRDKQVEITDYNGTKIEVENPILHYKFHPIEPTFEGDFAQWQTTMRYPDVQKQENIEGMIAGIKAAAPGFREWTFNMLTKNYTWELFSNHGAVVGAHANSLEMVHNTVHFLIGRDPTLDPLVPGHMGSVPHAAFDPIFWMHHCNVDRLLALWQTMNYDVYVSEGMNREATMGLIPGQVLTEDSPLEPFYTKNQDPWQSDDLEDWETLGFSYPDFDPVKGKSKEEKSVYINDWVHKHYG
Among the assessed kojic acid triazol thiosemicarbazide Schiff base derivatives, compound 6w expressed better tyrosinase inhibitory activity than the other compounds, in order to further explore the inhibition mechanism, the inhibitory type of the compound 6w on mushroom tyrosinase was decided by the Lineweaver–Burk double reciprocal plots. The Lineweaver–Burk plots were obtained by different concentrations of the compound 6w and the substrate (Figure 2(A)). The plots of 1/V versus 1/[S] gave a family of straight lines with different slopes. […] All of the straight lines intersected at a point in the second quadrant. […] The inhibition constant (Ki) of the compound was obtained by a plot of the slope versus the concentrations of the compound 6w, Kis of the compound was obtained by a plot of vertical intercept (1/Vm) versus the concentrations of the compound 6w, the results were shown in Figure 2(B,C). […] Compound 6w has a better binding with free enzyme.
Figure 2. Kinetic inhibition measurement of compound 6w. […] (A) The concentrations of compound 6w in the figure were 0, 0.5 μM, 1 μM, and 2 μM, respectively. (B) The secondary replot indicates the intercept versus the concentrations of compound 6w to define the inhibition constant Kis. (C) The secondary replot indicates the slope versus the concentrations of compound 6w to define the inhibition constant Ki.

“Also recorded” adds a separate entry of the source.

As to “2-(1-(4-((1-((5-Hydroxy-4-oxo-4H-pyran-2-yl)methyl)-1H-1,2,3-triazol-5-yl)methoxy)phenyl)ethylidene)hydrazinecarbothioamide [Compound 6w]”, in the experiment with fresh-cut apples, the “anti-browning effect on fresh-cut apple (L* values, colour)” value is “potent anti-browning agent; also recorded: better than that of kojic acid and ascorbic acid; also recorded: some anti-browning effect”. Besides, the IC50 in experiment [1] turned out to be 3.03 ± 0.009 µM. Also, the inhibition type entry against mushroom tyrosinase (Lineweaver-Burk double reciprocal plots) is on record as “mixed type inhibitor”. On mushroom tyrosinase (from plot of slope versus concentration of 6w, free enzyme, read-out: inhibition constant Ki), the Ki (as a rule, the equilibrium dissociation constant of an inhibitor or competing ligand from its target) worked out at 0.3 nM. In addition, the “inhibition constant Kis” value against mushroom tyrosinase (from plot of vertical intercept (1/Vm) versus concentration of 6w) is reported as 0.1997 µM.
